Test results published in ChEMBL document CHEMBL1126058, “Development of potent and selective CCK-A receptor agonists from Boc-CCK-4: tetrapeptides containing Lys(N epsilon)-amide residues” (J Med Chem, 1992).
Where a SMILES comes first, the peptide text is derived from it. [ ]: non-standard residue; d: D form. The star is where a group is joined. Hydrocinnamoyl(4-OSO3H) = O=C(CCc1ccc(OS(=O)(=O)O)cc1)*; Acryloyl(3-(3-pyridyl),E) = O=C(/C=C/c1cccnc1)*; Propanoyl(3-(4-F-phenyl)) = O=C(CCc1ccc(F)cc1)*; Propanoyl(3-(4-MeO-Ph)) = COc1ccc(CCC(=O)*)cc1; Propanoyl(3-(4-Cl-Ph)) = O=C(CCc1ccc(Cl)cc1)*; 2Naphthoyl(6-OH) = O=C(c1ccc2cc(O)ccc2c1)*; Hydrocinnamoyl(4-Me) = Cc1ccc(CCC(=O)*)cc1; Quinoline3carbonyl = O=C(c1cnc2ccccc2c1)*; Dihydrocaffeoyl = O=C(CCc1ccc(O)c(O)c1)*; X35 = O=C(/C=C\c1ccc(OS(=O)(=O)O)cc1)*; X6 = O=C(/C=C\c1ccc([N+](=O)[O-])cc1)*; Desaminotyrosyl = O=C(CCc1ccc(O)cc1)*; Propanoyl(3-cHex) = O=C(CCC1CCCCC1)*; Butanoyl(4-Ph) = O=C(CCCc1ccccc1)*; 1Naphthoyl = O=C(c1cccc2ccccc12)*; 2Naphthoyl = O=C(c1ccc2ccccc2c1)*; Hydrocinnamoyl = O=C(CCc1ccccc1)*; NMeF = CN[C@@H](Cc1ccccc1)C(=O)O; X2 = O=C(c1cc2cc(Cl)ccc2[nH]1)*; X7 = CN(C)c1ccc(/C=C\C(=O)*)cc1; X8 = COc1ccc2[nH]c(C(=O)*)cc2c1; X1 = O=C(/C=C\c1ccc(O)c(O)c1)*; X34 = O=C(/C=C\c1ccc(Cl)cc1)*; X3 = O=C(/C=C/c1ccc(O)cc1)*; X4 = O=C(/C=C\c1ccc(F)cc1)*; X5 = O=C(CCc1cccc(O)c1)*; X9 = O=C(/C=C/c1cccs1)*; Boc = CC(C)(C)OC(=O)*

What was measured:
Cavia porcellus [1] = species on record: Cavia porcellus; assay: Stimulation of amylase release in guinea pig pancreas; assay type: functional
Cavia porcellus [2] = species on record: Cavia porcellus; assay: Hydrolysis of phosphoinositide (PI) relative to maximal response elicited by CCK-8 in guinea pig pancreas.; assay type: functional
[3] = target: T1, Cholecystokinin receptor type A (Cavia porcellus, UniProt Q63931); assay: Inhibition of specific binding of [125I]BH-CCK-8 in guinea pig pancreas.
T1 sequence (Q63931 whole entry): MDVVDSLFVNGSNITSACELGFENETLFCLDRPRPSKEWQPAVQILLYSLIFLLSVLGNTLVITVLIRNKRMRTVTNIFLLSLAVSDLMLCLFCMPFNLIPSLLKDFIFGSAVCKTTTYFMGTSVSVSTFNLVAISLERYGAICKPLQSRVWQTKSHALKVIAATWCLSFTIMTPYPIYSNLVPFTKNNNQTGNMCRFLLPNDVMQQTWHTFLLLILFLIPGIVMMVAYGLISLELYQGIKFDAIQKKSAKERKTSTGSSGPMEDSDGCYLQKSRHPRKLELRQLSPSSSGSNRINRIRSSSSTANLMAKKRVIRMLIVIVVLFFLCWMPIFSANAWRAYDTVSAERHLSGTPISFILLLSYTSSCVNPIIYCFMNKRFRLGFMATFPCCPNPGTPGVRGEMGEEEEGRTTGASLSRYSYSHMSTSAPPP

Row | SMILES | EC50 (Cavia porcellus [1]) [nM] | Max (Cavia porcellus [2]) [%] | IC50 [3] [nM]
1 | CSCC[C@H](NC(=O)[C@H](Cc1c[nH]c2ccccc12)NC(=O)OC(C)(C)C)C(=O)N[C@@H](CC(=O)O)C(=O)N[C@@H](Cc1ccccc1)C(N)=O | 2600 | 40 | –
2 | CC(C)(C)OC(=O)N[C@@H](Cc1c[nH]c2ccccc12)C(=O)N[C@@H](CCCCNC(=O)c1cccc2ccccc12)C(=O)N[C@@H](CC(=O)O)C(=O)N[C@@H](Cc1ccccc1)C(N)=O (Boc-WK(1Naphthoyl)DF-NH2) | 79 | 61 | 57
3 | CC(C)(C)OC(=O)N[C@@H](Cc1c[nH]c2ccccc12)C(=O)N[C@@H](CCCCNC(=O)c1ccc2cc(O)ccc2c1)C(=O)N[C@@H](CC(=O)O)C(=O)N[C@@H](Cc1ccccc1)C(N)=O (Boc-WK(2Naphthoyl(6-OH))DF-NH2) | 3.5 | 50 | 4.5
4 | CN(C(=O)[C@H](CC(=O)O)NC(=O)[C@H](CCCCNC(=O)c1ccc2cc(O)ccc2c1)NC(=O)[C@H](Cc1c[nH]c2ccccc12)NC(=O)OC(C)(C)C)[C@@H](Cc1ccccc1)C(N)=O (Boc-WK(2Naphthoyl(6-OH))D[NMeF]-NH2) | 2.4 | 52 | 3.8
5 | CC(C)(C)OC(=O)N[C@@H](Cc1c[nH]c2ccccc12)C(=O)N[C@@H](CCCCNC(=O)c1ccc2ccccc2c1)C(=O)N[C@@H](CC(=O)O)C(=O)N[C@@H](Cc1ccccc1)C(N)=O (Boc-WK(2Naphthoyl)DF-NH2) | 4 | 36 | 14
6 | CC(C)(C)OC(=O)N[C@@H](Cc1c[nH]c2ccccc12)C(=O)N[C@@H](CCCCNC(=O)/C=C/c1cccnc1)C(=O)N[C@@H](CC(=O)O)C(=O)N[C@@H](Cc1ccccc1)C(N)=O (Boc-WK(Acryloyl(3-(3-pyridyl),E))DF-NH2) | 38 | 60 | 21
7 | CN(C(=O)[C@H](CC(=O)O)NC(=O)[C@H](CCCCNC(=O)/C=C/c1cccnc1)NC(=O)[C@H](Cc1c[nH]c2ccccc12)NC(=O)OC(C)(C)C)[C@@H](Cc1ccccc1)C(N)=O (Boc-WK(Acryloyl(3-(3-pyridyl),E))D[NMeF]-NH2) | 28 | 74 | 28
8 | CC(C)(C)OC(=O)N[C@@H](Cc1c[nH]c2ccccc12)C(=O)N[C@@H](CCCCNC(=O)CCCc1ccccc1)C(=O)N[C@@H](CC(=O)O)C(=O)N[C@@H](Cc1ccccc1)C(N)=O (Boc-WK(Butanoyl(4-Ph))DF-NH2) | 30000 | 19 | 910
9 | CC(C)(C)OC(=O)N[C@@H](Cc1c[nH]c2ccccc12)C(=O)N[C@@H](CCCCNC(=O)CCc1ccc(O)cc1)C(=O)N[C@@H](CC(=O)O)C(=O)N[C@@H](Cc1ccccc1)C(N)=O (Boc-WK(Desaminotyrosyl)DF-NH2) | 92 | 77 | 120
10 | CN(C(=O)[C@H](CC(=O)O)NC(=O)[C@H](CCCCNC(=O)CCc1ccc(O)cc1)NC(=O)[C@H](Cc1c[nH]c2ccccc12)NC(=O)OC(C)(C)C)[C@@H](Cc1ccccc1)C(N)=O (Boc-WK(Desaminotyrosyl)D[NMeF]-NH2) | 32 | 77 | 30
11 | CC(C)(C)OC(=O)N[C@@H](Cc1c[nH]c2ccccc12)C(=O)N[C@@H](CCCCNC(=O)CCc1ccc(O)c(O)c1)C(=O)N[C@@H](CC(=O)O)C(=O)N[C@@H](Cc1ccccc1)C(N)=O (Boc-WK(Dihydrocaffeoyl)DF-NH2) | 300 | 44 | 160
12 | Cc1ccc(CCC(=O)NCCCC[C@H](NC(=O)[C@H](Cc2c[nH]c3ccccc23)NC(=O)OC(C)(C)C)C(=O)N[C@@H](CC(=O)O)C(=O)N[C@@H](Cc2ccccc2)C(N)=O)cc1 (Boc-WK(Hydrocinnamoyl(4-Me))DF-NH2) | 240 | 62 | 290
13 | CC(C)(C)OC(=O)N[C@@H](Cc1c[nH]c2ccccc12)C(=O)N[C@@H](CCCCNC(=O)CCc1ccc(OS(=O)(=O)O)cc1)C(=O)N[C@@H](CC(=O)O)C(=O)N[C@@H](Cc1ccccc1)C(N)=O (Boc-WK(Hydrocinnamoyl(4-OSO3H))DF-NH2) | 98 | 68 | 76
14 | CC(C)(C)OC(=O)N[C@@H](Cc1c[nH]c2ccccc12)C(=O)N[C@@H](CCCCNC(=O)CCc1ccccc1)C(=O)N[C@@H](CC(=O)O)C(=O)N[C@@H](Cc1ccccc1)C(N)=O (Boc-WK(Hydrocinnamoyl)DF-NH2) | 850 | 49 | 310
15 | CC(C)(C)OC(=O)N[C@@H](Cc1c[nH]c2ccccc12)C(=O)N[C@@H](CCCCNC(=O)CCc1ccc(Cl)cc1)C(=O)N[C@@H](CC(=O)O)C(=O)N[C@@H](Cc1ccccc1)C(N)=O (Boc-WK(Propanoyl(3-(4-Cl-Ph)))DF-NH2) | 170 | 51 | 410
16 | CC(C)(C)OC(=O)N[C@@H](Cc1c[nH]c2ccccc12)C(=O)N[C@@H](CCCCNC(=O)CCc1ccc(F)cc1)C(=O)N[C@@H](CC(=O)O)C(=O)N[C@@H](Cc1ccccc1)C(N)=O (Boc-WK(Propanoyl(3-(4-F-phenyl)))DF-NH2) | 450 | 68 | 250
17 | COc1ccc(CCC(=O)NCCCC[C@H](NC(=O)[C@H](Cc2c[nH]c3ccccc23)NC(=O)OC(C)(C)C)C(=O)N[C@@H](CC(=O)O)C(=O)N[C@@H](Cc2ccccc2)C(N)=O)cc1 (Boc-WK(Propanoyl(3-(4-MeO-Ph)))DF-NH2) | 74 | 70 | 140
18 | CC(C)(C)OC(=O)N[C@@H](Cc1c[nH]c2ccccc12)C(=O)N[C@@H](CCCCNC(=O)CCC1CCCCC1)C(=O)N[C@@H](CC(=O)O)C(=O)N[C@@H](Cc1ccccc1)C(N)=O (Boc-WK(Propanoyl(3-cHex))DF-NH2) | 30000 | 40 | 310
19 | CC(C)(C)OC(=O)N[C@@H](Cc1c[nH]c2ccccc12)C(=O)N[C@@H](CCCCNC(=O)c1cnc2ccccc2c1)C(=O)N[C@@H](CC(=O)O)C(=O)N[C@@H](Cc1ccccc1)C(N)=O (Boc-WK(Quinoline3carbonyl)DF-NH2) | 39 | 46 | 33
20 | CC(C)(C)OC(=O)N[C@@H](Cc1c[nH]c2ccccc12)C(=O)N[C@@H](CCCCNC(=O)/C=C\c1ccc(O)c(O)c1)C(=O)N[C@@H](CC(=O)O)C(=O)N[C@@H](Cc1ccccc1)C(N)=O (Boc-WK(X1)DF-NH2) | 45 | 66 | 33
21 | CC(C)(C)OC(=O)N[C@@H](Cc1c[nH]c2ccccc12)C(=O)N[C@@H](CCCCNC(=O)c1cc2cc(Cl)ccc2[nH]1)C(=O)N[C@@H](CC(=O)O)C(=O)N[C@@H](Cc1ccccc1)C(N)=O (Boc-WK(X2)DF-NH2) | 62 | 27 | 110
22 | CN(C(=O)[C@H](CC(=O)O)NC(=O)[C@H](CCCCNC(=O)/C=C/c1ccc(O)cc1)NC(=O)[C@H](Cc1c[nH]c2ccccc12)NC(=O)OC(C)(C)C)[C@@H](Cc1ccccc1)C(N)=O (Boc-WK(X3)D[NMeF]-NH2) | 3 | 76 | […]
23 | CC(C)(C)OC(=O)N[C@@H](Cc1c[nH]c2ccccc12)C(=O)N[C@@H](CCCCNC(=O)/C=C\c1ccc(F)cc1)C(=O)N[C@@H](CC(=O)O)C(=O)N[C@@H](Cc1ccccc1)C(N)=O (Boc-WK(X4)DF-NH2) | 16 | 74 | 65
24 | CC(C)(C)OC(=O)N[C@@H](Cc1c[nH]c2ccccc12)C(=O)N[C@@H](CCCCNC(=O)CCc1cccc(O)c1)C(=O)N[C@@H](CC(=O)O)C(=O)N[C@@H](Cc1ccccc1)C(N)=O (Boc-WK(X5)DF-NH2) | 160 | 46 | 400
25 | CC(C)(C)OC(=O)N[C@@H](Cc1c[nH]c2ccccc12)C(=O)N[C@@H](CCCCNC(=O)/C=C\c1ccc([N+](=O)[O-])cc1)C(=O)N[C@@H](CC(=O)O)C(=O)N[C@@H](Cc1ccccc1)C(N)=O (Boc-WK(X6)DF-NH2) | 27 | 64 | 57
26 | CN(C)c1ccc(/C=C\C(=O)NCCCC[C@H](NC(=O)[C@H](Cc2c[nH]c3ccccc23)NC(=O)OC(C)(C)C)C(=O)N[C@@H](CC(=O)O)C(=O)N[C@@H](Cc2ccccc2)C(N)=O)cc1 (Boc-WK(X7)DF-NH2) | 17 | 49 | 120
27 | COc1ccc2[nH]c(C(=O)NCCCC[C@H](NC(=O)[C@H](Cc3c[nH]c4ccccc34)NC(=O)OC(C)(C)C)C(=O)N[C@@H](CC(=O)O)C(=O)N[C@@H](Cc3ccccc3)C(N)=O)cc2c1 (Boc-WK(X8)DF-NH2) | 16 | 21 | 52
28 | CC(C)(C)OC(=O)N[C@@H](Cc1c[nH]c2ccccc12)C(=O)N[C@@H](CCCCNC(=O)/C=C/c1cccs1)C(=O)N[C@@H](CC(=O)O)C(=O)N[C@@H](Cc1ccccc1)C(N)=O (Boc-WK(X9)DF-NH2) | 20 | 66 | 50
29 | CC(C)(C)OC(=O)N[C@@H](Cc1c[nH]c2ccccc12)C(=O)N[C@@H](CCCCNC(=O)/C=C\c1ccc(Cl)cc1)C(=O)N[C@@H](CC(=O)O)C(=O)N[C@@H](Cc1ccccc1)C(N)=O (Boc-WK(X34)DF-NH2) | 79 | 66 | –
30 | CC(C)(C)OC(=O)N[C@@H](Cc1c[nH]c2ccccc12)C(=O)N[C@@H](CCCCNC(=O)/C=C\c1ccc(OS(=O)(=O)O)cc1)C(=O)N[C@@H](CC(=O)O)C(=O)N[C@@H](Cc1ccccc1)C(N)=O (Boc-WK(X35)DF-NH2) | 7.2 | 72 | –
